Laboratory results: paper PMC9411704, “Assessment of the Carcinogenic Potential of Pretomanid in Transgenic Tg.rasH2 Mice” (International Journal of Toxicology, 2022)
Like-named read-outs stand apart in the source and are kept apart here. Marks after values point to notes of the source that are not given here.

Key:
[1] = set-up: method as in Drug Prescribing information; conditions: ref Drug Prescribing information; cited from earlier work
Mice = tested on: Mice; set-up: method as in Drug Prescribing information; conditions: ref Drug Prescribing information; cited from earlier work
Rats = tested on: Rats; set-up: method as in Drug Prescribing information; conditions: ref Drug Prescribing information; cited from earlier work
Tg.rasH2 mice = conditions: for Incidence of lung adenoma, single / Incidence of lung carcinoma / Incidence of lung adenoma, multiple / Incidence of lung tumors, combined: three IP injections of 1000 mg/kg/day urethane; for Incidence of lung adenoma, multiple / Incidence of lung tumors, combined: P < 0.01; for Mean body weight / Mean food consumption: (SD)
Method: The vehicle was 0.5% carboxymethylcellulose (CMC) with 0.1% Tween 80 (v/v). The vehicle and pretomanid formulations were administered to mice by oral gavage once daily at a dosing volume of 10 mL/kg. Individual dose volumes were calculated based on each animal’s most recently recorded body weight. The dose formulations were magnetically stirred at room temperature for at least 30 minutes prior to and during dosing. The positive control was urethane in 0.9% sodium chloride and was administered via intraperitoneal injection for a total of three times. The positive control formulation was allowed to stand at room temperature for at least 30 minutes and inverted several times prior to dose administration. Aliquots (0.5 to 1.0 mL) were collected from the top, bottom, and middle of the first (week 1), interim (week 13), and last (week 25) pretomanid dose formulations to assess the accuracy of the concentration and/or homogeneity.
Male and female Tg.rasH2 [CByB6F1-Tg(HRAS)2Jic (+/−hemizygous c-Ha-ras)] mice (n = 110/sex) approximately 5 weeks of age were assigned to the main cohort groups to assess carcinogenicity. Male and female wild type CByB6F1 mice [CByB6F1-Tg(HRAS)2Jic (−/−homozygous c-Ha-ras)] (n = 34/sex) approximately 6 weeks of age were assigned to the cohort of mice used to assess the toxicokinetics of pretomanid and its M50 metabolite. […] All mice were obtained from Taconic Biosciences (Germantown, NY). The supplier verified that the mice were murine pathogen-free and females were nulliparous and non-pregnant. At the time of dosing initiation (Day 1), the toxicokinetic mice were approximately 8 weeks of age. On Day 1 of the study, the body weights of the main cohort mice ranged from 19.2 to 25.9 grams (males) and from 15.9 to 20.4 grams (females), and the body weights of the TK cohort mice ranged from 23.4 to 30.2 grams (males) and from 17.6 to 23.5 grams (females).
This study assessed the carcinogenic potential of pretomanid following repeated oral gavage administration once daily for 26 weeks in hemizygous Tg.rasH2 [CByB6F1-Tg(HRAS)2Jic (+/− hemizygous c-Ha-ras)] mice. This study also evaluated the TK profile of pretomanid and metabolite M50 in wild-type CByB6F1 [CByB6F1-Tg(HRAS)2Jic (−/−homozygous c-Ha-ras)] mice. The study was conducted under GLP regulations.
For carcinogenicity assessment (main cohort), 25 mice/sex were included in the vehicle control and pretomanid-treated groups. At the time of dosing initiation (Day 1), the main cohort mice used for assessing carcinogenicity were approximately 7 weeks of age and weighed between 15.9 to 20.4 g (females) and 19.2 to 25.9 g (males). Male groups (Groups 2, 4, and 6) received pretomanid in vehicle at doses of 5, 15, and 40 mg/kg/day, respectively. Female groups (Groups 3, 5, and 7) received pretomanid in vehicle at doses of 10, 30, and 80 mg/kg/day. Positive control mice (n = 10/sex) were included in the main cohort and received three intraperitoneal injections of urethane in saline (1000 mg/kg/injection) on Days 1, 3, and 5. The test and control articles were administered at a dose volume of 10 mL/kg body weight.
Clinical signs, body weights, and food consumption were assessed for the main cohort animals to monitor animal health and any potential toxicity from pretomanid administration. In-life measurements were recorded in Provantis™ Version 9.4.6.3 (Instem, Philadelphia, PA).
All animals, including those in the TK cohort, were observed twice daily for morbidity and mortality. For animals in the main cohort, cage side observations were performed on the day of dosing within 2 hours after the last animal in each group was dosed (Days 1, 3, and 5 for positive control animals).

SMILES: O=C(Cn1ccnc1[N+](=O)[O-])NCc1ccccc1 [Benznidazole]
- Genotoxicity [1]: Positive in vitro and in vivo

SMILES: CCN(CC)C(=O)/C(C#N)=C/c1cc(O)c(O)c([N+](=O)[O-])c1 [Entacapone]
- Carcinogenicity in mice (Mice): Not carcinogenic
- Carcinogenicity in rats (Rats): Carcinogenic
- Genotoxicity [1]: Positive in vitro, negative in vivo

SMILES: Cc1ncc([N+](=O)[O-])n1CCO [Metronidazole]
- Genotoxicity [1]: Positive in vitro, negative in vivo

SMILES: O=C1CN(/N=C/c2ccc([N+](=O)[O-])o2)C(=O)N1 [Nitrofurantion]
- Carcinogenicity in mice (Mice): Not carcinogenic in Swiss or BDF mice, carcinogenic in female B6C3F1 mice
- Carcinogenicity in rats (Rats): Not carcinogenic in Holtzman rats or Sprague-Dawley rats, carcinogenic in male F344/N rats
- Genotoxicity [1]: Positive in vitro, negative in vivo

SMILES: CCOC(N)=O [Positive control, urethane]
- Incidence of lung adenoma, single (Tg.rasH2 mice; female): 0%
- Incidence of lung carcinoma (Tg.rasH2 mice; female): 0%
- Incidence of lung adenoma, multiple (Tg.rasH2 mice; female): 100%*
- Incidence of lung tumors, combined (Tg.rasH2 mice; female): 100%*
- Mean body weight (Tg.rasH2 mice; female, urethane 1000 mg/kg IP Days 1, 3, 5, study day 1): 17.89 (0.57) Grams
- Mean body weight (Tg.rasH2 mice; female, urethane 1000 mg/kg IP Days 1, 3, 5, study day 29): 19.81 (0.58) Grams
- Mean body weight (Tg.rasH2 mice; female, urethane 1000 mg/kg IP Days 1, 3, 5, study day 57): 22.11 (0.68) Grams
- Mean food consumption (Tg.rasH2 mice; female, urethane 1000 mg/kg IP Days 1, 3, 5, study days 1-8): 3.313 (1.048) Grams/Day
- Mean food consumption (Tg.rasH2 mice; female, urethane 1000 mg/kg IP Days 1, 3, 5, study days 29-36): 6.218 (1.222) Grams/Day
- Mean food consumption (Tg.rasH2 mice; female, urethane 1000 mg/kg IP Days 1, 3, 5, study days 57-64): 4.210 (0.524) Grams/Day
- Incidence of lung adenoma, single (Tg.rasH2 mice; male): 0%
- Incidence of lung carcinoma (Tg.rasH2 mice; male): 0%
- Incidence of lung adenoma, multiple (Tg.rasH2 mice; male): 100%*
- Incidence of lung tumors, combined (Tg.rasH2 mice; male): 100%*
- Mean body weight (Tg.rasH2 mice; male, urethane 1000 mg/kg IP Days 1, 3, 5, study day 1): 21.99 (0.71) Grams
- Mean body weight (Tg.rasH2 mice; male, urethane 1000 mg/kg IP Days 1, 3, 5, study day 29): 24.81 (1.41) Grams
- Mean body weight (Tg.rasH2 mice; male, urethane 1000 mg/kg IP Days 1, 3, 5, study day 57): 27.73 (1.74) Grams
- Mean food consumption (Tg.rasH2 mice; male, urethane 1000 mg/kg IP Days 1, 3, 5, study days 1-8): 2.894 (0.461) Grams/Day
- Mean food consumption (Tg.rasH2 mice; male, urethane 1000 mg/kg IP Days 1, 3, 5, study days 29-36): 4.044 (0.374) Grams/Day
- Mean food consumption (Tg.rasH2 mice; male, urethane 1000 mg/kg IP Days 1, 3, 5, study days 57-64): 3.956 (0.359) Grams/Day
- Clinical signs (Tg.rasH2 mice; urethane 1000 mg/kg IP Days 1, 3, 5): ataxia and decreased motor activity
- Body weight change (Tg.rasH2 mice; urethane 1000 mg/kg IP, first week of the study): weight loss
- Incidence of alveolar bronchiolar adenomas (Tg.rasH2 mice; urethane, each sex, P < 0.01 vs vehicle control): 100%
